Test results published in PubChem BioAssay AID248 (DTP/NCI, 2004).
“And” between values parts separate entries of the source, which are not always exact repeats. Equal values may be shown once. Inconclusive results and toxic doses are left out.

Test system: L1210 leukemia ip in BDF1 mice, survival T/C
Assay: NCI In Vivo Anticancer Drug Screen. Data for tumor model L1210 Leukemia (intraperitoneal) in B6D2F1 (BDF1) mice
Details: endpoint: mean survival time, higher = longer survival
Method in brief: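 Survival endpoint. Drug-treated group vs vehicle group, expressed as T divided by C. Tumor passaged by transplantation.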

[1] = dose: 12.5 mg/kg/injection, schedule: Q01DX009 (ip), vehicle: Klucel (hydroxypropylcellulose) (HPC)
[2] = dose: 25.0 mg/kg/injection, schedule: Q01DX009 (ip), vehicle: Klucel (hydroxypropylcellulose) (HPC)
[3] = dose: 100.0 mg/kg/injection, schedule: Q01DX001 (ip), vehicle: carboxymethylcellulose (CMC)
[4] = dose: 200.0 mg/kg/injection, schedule: Q01DX001 (ip), vehicle: carboxymethylcellulose (CMC)
[5] = dose: 400.0 mg/kg/injection, schedule: Q01DX001 (ip), vehicle: carboxymethylcellulose (CMC)
[6] = dose: 100.0 mg/kg/injection, schedule: Q01DX001 (ip), vehicle: saline
[7] = dose: 200.0 mg/kg/injection, schedule: Q01DX001 (ip), vehicle: saline
[8] = dose: 400.0 mg/kg/injection, schedule: Q01DX001 (ip), vehicle: saline
[9] = dose: 100.0 mg/kg/injection, schedule: Q04DX003 (ip), vehicle: saline with Tween-80
[10] = dose: 200.0 mg/kg/injection, schedule: Q04DX003 (ip), vehicle: saline with Tween-80
[11] = dose: 400.0 mg/kg/injection, schedule: Q04DX003 (ip), vehicle: saline with Tween-80
[12] = dose: 25.0 mg/kg/injection, schedule: Q01DX001 (ip), vehicle: saline
[13] = dose: 50.0 mg/kg/injection, schedule: Q01DX001 (ip), vehicle: saline

In the case of `COc1ccc(/C(C#N)=C/c2ccc(N(C)CCC#N)cc2)cc1`, the T/C [1] is reported as 103 % of control and the T/C [2] is reported as 100 % of control.
In the case of `Cc1cc([N+](=O)[O-])cc(C)c1C`, the T/C (dose: 100.0 mg/kg/injection, schedule: Q04DX003 (ip), vehicle: Klucel (hydroxypropylcellulose) (HPC)) is reported as 98 % of control, the T/C (dose: 200.0 mg/kg/injection, schedule: Q04DX003 (ip), vehicle: Klucel (hydroxypropylcellulose) (HPC)) is reported as 102 % of control and the T/C (dose: 400.0 mg/kg/injection, schedule: Q04DX003 (ip), vehicle: Klucel (hydroxypropylcellulose) (HPC)) is reported as 107 % of control.
`CCCCCCCCC(C)c1ccccc1O` (stereo unspecified) was tested, and the T/C (dose: 100.0 mg/kg/injection, schedule: Q01DX009 (ip), vehicle: Klucel (hydroxypropylcellulose) (HPC)) was 104 % of control, the T/C (dose: 200.0 mg/kg/injection, schedule: Q01DX009 (ip), vehicle: Klucel (hydroxypropylcellulose) (HPC)) was 101 % of control and the T/C (dose: 400.0 mg/kg/injection, schedule: Q01DX009 (ip), vehicle: Klucel (hydroxypropylcellulose) (HPC)) was 112 % of control.
`O=C(Oc1ccc(N=Cc2ccc3c(c2)OCO3)cc1)Oc1ccc(N=Cc2ccc3c(c2)OCO3)cc1` was tested, and the T/C [3] was 96 % of control, the T/C [4] was 95 % of control and the T/C [5] was 93 % of control.
For `CC12CC3(C)CC(C)(C1)CC(NC(=O)N(CCCl)N=O)(C2)C3`, the T/C (dose: 20.0 mg/kg/injection, schedule: Q01DX001 (ip), vehicle: other) was 155 % of control, the T/C (dose: 187.0 mg/kg/injection, schedule: Q01DX001 (ip), vehicle: other) was 162 % of control and the T/C (dose: 250.0 mg/kg/injection, schedule: Q01DX001 (ip), vehicle: other) was 187 % of control. The T/C (dose: 375.0 mg/kg/injection, schedule: Q01DX001 (ip), vehicle: other) was 211 % of control, the T/C (dose: 500.0 mg/kg/injection, schedule: Q01DX001 (ip), vehicle: other) was 258 % of control and the T/C (dose: 750.0 mg/kg/injection, schedule: Q01DX001 (ip), vehicle: other) was 274 % of control.
In the case of `O=C(NCCCCNC(=O)Nc1cccc(C2=NCCN2)c1)Nc1cccc(C2=NCCN2)c1`, the T/C (dose: 12.0 mg/kg/injection, schedule: Q01DX Z (ip), vehicle: carboxymethylcellulose (CMC)) is reported as 114 % of control, the T/C (dose: 23.0 mg/kg/injection, schedule: Q01DX Z (ip), vehicle: carboxymethylcellulose (CMC)) is reported as 100 % of control and the T/C (dose: 46.0 mg/kg/injection, schedule: Q01DX Z (ip), vehicle: carboxymethylcellulose (CMC)) is reported as 108 % of control.
In the case of `CCN(CC)CCCNC(C)=O`, the T/C (dose: 100.0 mg/kg/injection, schedule: Q01DX009 (ip), vehicle: saline) is reported as 96 % of control and the T/C (dose: 200.0 mg/kg/injection, schedule: Q01DX009 (ip), vehicle: saline) is reported as 98 % of control.
In the case of `O=C(OC1COC(SCc2ccccc2)C(OC(=O)c2ccccc2)C1OC(=O)c1ccccc1)c1ccccc1` (stereo unspecified), the T/C [6] is reported as 98 % of control, the T/C [7] is reported as 110 % of control and the T/C [8] is reported as 97 % of control.
For `O=C(Nc1nccs1)Nc1cccc2ccccc12`, the T/C (dose: 100.0 mg/kg/injection, schedule: Q04DX002 (ip), vehicle: Klucel (hydroxypropylcellulose) (HPC)) was 93 % of control, the T/C (dose: 200.0 mg/kg/injection, schedule: Q04DX002 (ip), vehicle: Klucel (hydroxypropylcellulose) (HPC)) was 93 % of control and the T/C (dose: 400.0 mg/kg/injection, schedule: Q04DX002 (ip), vehicle: Klucel (hydroxypropylcellulose) (HPC)) was 93 % of control.
With `CC(Br)CN1CCOCC1` (stereo unspecified) the T/C [6] was 103 % of control.
For `COc1c(C)c(C)c(OC)c(CC(=O)O)c1C`, the T/C [9] was 93 % of control, the T/C [10] was 90 % of control and the T/C [11] was 93 % of control.
For `CNC(CCc1ccccc1)C(=O)O` (stereo unspecified), the T/C (dose: 100.0 mg/kg/injection, schedule: Q01DX009 (ip), vehicle: saline sonified) was 98 % of control, the T/C [9] was 100 % of control and the T/C (dose: 200.0 mg/kg/injection, schedule: Q01DX009 (ip), vehicle: saline sonified) was 101 % of control. For the same compound, the T/C [10] was 99 % of control, the T/C (dose: 400.0 mg/kg/injection, schedule: Q01DX009 (ip), vehicle: saline sonified) was 93 % of control and the T/C [11] was 99 % of control.
`COc1ncnc(=O)[nH]1` was tested, and the T/C [6] was 97 % of control, the T/C [7] was 98 % of control and the T/C [8] was 97 % of control.
For `CC/C(=N\NC(N)=O)C(OC)OC`, the T/C [3] was 108 % of control, the T/C [4] was 86 % of control and the T/C [5] was 92 % of control.
`COc1cc2c3c(c1O)C1(C=CC(=O)C=C1)CC3N(C)CC2` (stereo unspecified) was tested, and the T/C [6] was 92 % of control, the T/C [7] was 94 % of control and the T/C [8] was 90 % of control.
With `O=[N+]([O-])c1ccc(C2=NCCS2)cc1` the T/C (dose: 87.0 mg/kg/injection, schedule: Q04DX003 (ip), vehicle: Klucel (hydroxypropylcellulose) (HPC)) was 102 % of control, the T/C (dose: 175.0 mg/kg/injection, schedule: Q04DX003 (ip), vehicle: Klucel (hydroxypropylcellulose) (HPC)) was 102 % of control and the T/C (dose: 350.0 mg/kg/injection, schedule: Q04DX003 (ip), vehicle: Klucel (hydroxypropylcellulose) (HPC)) was 102 % of control.
`COc1ccc2c(c1)c1c(C)c3cnccc3c(C)c1n2C` was tested, and the T/C [12] was 100 % of control, the T/C [13] was 102 % of control and the T/C (dose: 89.0 mg/kg/injection, schedule: Q01DX001 (ip), vehicle: carboxymethylcellulose (CMC)) was 102 % of control. The T/C (dose: 265.0 mg/kg/injection, schedule: Q01DX001 (ip), vehicle: saline) was 152 % of control, the T/C (dose: 267.0 mg/kg/injection, schedule: Q01DX001 (ip), vehicle: carboxymethylcellulose (CMC)) was 107 % of control and the T/C [5] was 117 % of control. The T/C [8] was 124 % of control.
In the case of `Cn1c[n+](C)ccc1=O`, the T/C (dose: 100.0 mg/kg/injection, schedule: Q01DX009 (ip), vehicle: water) is reported as 87 % of control, the T/C (dose: 100.0 mg/kg/injection, schedule: Q04DX003 (ip), vehicle: water) is reported as 111 % of control and the T/C (dose: 200.0 mg/kg/injection, schedule: Q01DX009 (ip), vehicle: water) is reported as 104 % of control. The T/C (dose: 200.0 mg/kg/injection, schedule: Q04DX003 (ip), vehicle: water) was 106 % of control and the T/C (dose: 400.0 mg/kg/injection, schedule: Q04DX003 (ip), vehicle: water) was 111 % of control.
For `O=C(OCC1CCN2CCCC12)c1ccccc1` (stereo unspecified), the T/C (dose: 12.5 mg/kg/injection, schedule: Q04DX003 (ip), vehicle: saline) was 104 % of control, the T/C (dose: 25.0 mg/kg/injection, schedule: Q04DX003 (ip), vehicle: saline) was 110 % of control and the T/C (dose: 50.0 mg/kg/injection, schedule: Q04DX003 (ip), vehicle: saline) was 102 % of control.
`C#CC(OC(=O)NC(CCSC)C(=O)OC)(c1ccccc1)c1ccccc1` (stereo unspecified) was tested, and the T/C (dose: 100.0 mg/kg/injection, schedule: Q01DX001 (ip), vehicle: saline with Tween-80) was 99 % of control and the T/C (dose: 200.0 mg/kg/injection, schedule: Q01DX001 (ip), vehicle: saline with Tween-80) was 99 % of control.
For `CC(C)CCNc1ncnc2[nH]ncc12`, the T/C [1] was 117 % of control, the T/C [2] was 104 % of control and the T/C (dose: 50.0 mg/kg/injection, schedule: Q01DX009 (ip), vehicle: Klucel (hydroxypropylcellulose) (HPC)) was 109 % of control.
With `c1cc2c(c(C3=NCCO3)c1)CCCC2` (tested in a mixture with another compound) the T/C (dose: 100.0 mg/kg/injection, schedule: Q01DX009 (ip), vehicle: saline with Tween-80) was 96 % of control, the T/C (dose: 200.0 mg/kg/injection, schedule: Q01DX009 (ip), vehicle: saline with Tween-80) was 88 % of control and the T/C (dose: 400.0 mg/kg/injection, schedule: Q01DX009 (ip), vehicle: saline with Tween-80) was 91 % of control.
With `CCC1(O)C(=O)OCc2c1cc1n(c2=O)CCC1` (stereo unspecified) the T/C (dose: 12.5 mg/kg/injection, schedule: Q01DX001 (ip), vehicle: saline) was 113 % of control, the T/C [12] was 106 % of control and 110 % of control and the T/C [13] was 102 % of control. For the same compound, the T/C [6] was 101 % of control and the T/C [7] was 98 % of control.
With `CCC(CC)NCC(C)O` (stereo unspecified) the T/C (dose: 75.0 mg/kg/injection, schedule: Q01DX001 (ip), vehicle: saline) was 105 % of control, the T/C (dose: 150.0 mg/kg/injection, schedule: Q01DX001 (ip), vehicle: saline) was 108 % of control and the T/C (dose: 300.0 mg/kg/injection, schedule: Q01DX001 (ip), vehicle: saline) was 102 % of control.
